We go through four compounds from ChEMBL document CHEMBL1150032, “-hydroxy- and -ketoester functionalized thrombin inhibitors” (Bioorg Med Chem Lett, 1992).

Assay [1] is described as follows: Inhibitory concentration required to double thrombin clotting time. Format: functional, Homo sapiens.
The target of assay [2] is T1, Prothrombin (Homo sapiens, UniProt P00734). As to the kind of experiment: Inhibitory concentration against thrombin when incubated with the compound for 3 min.
Assay [3] in a line: Inhibitory concentration required to double thrombin clotting time in batch 2. It is filed as functional, Homo sapiens.
Assay [4] is described as follows: Inhibitory concentration required to double thrombin clotting time in batch 1. Format: functional, Homo sapiens.
Assay [5] deals with T1, Prothrombin. As to the kind of experiment: Inhibitory concentration against thrombin when incubated with the compound for 3 min in batch 1.
Assay [6] deals with T1, Prothrombin. As to the kind of experiment: Inhibitory concentration against thrombin when incubated with the compound for 3 min in batch 2.
Assay [7] addresses T1, Prothrombin. As to the kind of experiment: Overall Inhibitory constant against thrombin was determined.

Some results are limits rather than exact numbers.

As usually defined, the IC50 is the point on the concentration scale where inhibition reaches its midpoint. With `NC(N)=NCCC[C@@H](C=O)NC(=O)[C@@H]1CCCN1C(=O)[C@H](N)Cc1ccccc1`, the IC50 in assay [1] is 400 nM; on Prothrombin [2], 49 nM.
As for `COC(=O)C(O)[C@H](CCCCN=C(N)N)NC(=O)[C@@H]1CCCN1C(=O)[C@H](N)Cc1ccccc1` (stereo not given in full), the IC50 at Prothrombin [2] is 48000 nM.
Consider `COC(=O)[C@@H](O)[C@H](CCCCN)NC(=O)[C@@H]1CCCN1C(=O)[C@H](N)Cc1ccccc1`, for which the IC50 in assay [3] is more than 300 µM; in assay [4], more than 300 µM; at Prothrombin [5], 30.5 µM; on Prothrombin [6], 20.2 µM.
For orientation: Ki means a measure of affinity in units of concentration, obtained from inhibition or displacement. `COC(=O)C(O)(OC)C(CCCCN)NC(=O)[C@@H]1CCCN1C(=O)[C@H](N)Cc1ccccc1` (stereo not given in full) came in with a Ki at Prothrombin [7] of 1.7 nM. For the same compound, the values for the IC50 (in assay [1]; against Prothrombin [2]) were 390 nM and 32 nM, respectively.
